Assay results as given in PMC6270778, “Novel Cinnamic Acid Derivatives as Antioxidant and Anticancer Agents: Design, Synthesis and Modeling Studies” (Molecules, 2014).

Columns and labels:
[1] = ABTS+ decolorization assay; details: 0.1 mM
Experimental: The ABTS^•+ is derived from the oxidation of ABTS by potassium persulfate. It is a decolorization assay. The addition of electron-donating antioxidants leads to ABTS^•+ reduction. The chemistry taking place involves the direct generation of the ABTS^•+ with no involvement of an intermediary radical.
In this assay, ethanol is used for the dilution of the ABTS^+• solution. ABTS is dissolved in water to a 7 mM and reacts with 2.45 mM […] to produce the ABTS radical cation (ABTS^+•) by allowing the mixture to stand in the dark at room temperature for 12–16 h before use. Ten μL of diluted ABTS^+• solution (734 nm) is added to 10 μL of antioxidant compounds or Trolox standards (final concentration 0–0.1 mM) in ethanol and the absorbance is measured at 30 °C exactly 1 min after the initial mixing (Table 3).

[2] = Superoxide radical scavenging activity (non-enzymatic, PMS/NADH, NBT method); details: 0.1 mM; no = no action under the used experimental conditions
Experimental: The superoxide anion radical (O2^−·) is less toxic than the hydroxyl radical, but still being one of the most known toxic ROS. Two different experimental assays are followed for the determination of superoxide anion radical scavenging activity: (i) one involves an enzymatic production of superoxide anions and (ii) the other is supported by a non- enzymatic procedure. Herein the test is performed at 0.1 mM concentration, generating superoxide anion radicals by a non-enzymatically assay (Table 3). Compound 1i presented the highest activity, followed by compound 1ii (75% and 50%, respectively).
Superoxide radicals were produced non-enzymatically by mixing PMS, NADH and air–oxygen. The nitroblue tetrazolium method was used for the estimation of the produced radicals. The reaction mixture containing compounds (0.1 mM), 3 μM PMS, 78 μM NADH, and 25 μM NBT in 19 μM phosphate buffer pH 7.4 was incubated for 2 min at room temperature. The acrylic acids were preincubated for 2 min before adding NADH (Table 4) and the absorption was recorded at 560 nm.

[3] = Interaction with the stable radical DPPH
Experimental: The novel acids were studied for the antioxidant activity by the use of the sTable 2,2-diphenyl-1-picrylhydrazyl radical (DPPH) at concentrations 0.05 and 0.1 mM after 20 and 60 min (Table 2). In the DPPH assay, the dominant chemical reaction involved is the reduction of the DPPH radical by single electron transfer SET from the antioxidant. Phenolic compounds eg. […] The compounds presented reducing abilities which ranged nearly 29% (4ii), small differences were found among the compounds with time and concentration. […] Due to steric reasons the interaction of DPPH with the tested compounds is low.
To a solution of DPPH in absolute ethanol the appropriate volume of the compounds (0.05 and 0.1 mM final concentrations) dissolved in DMSO was added. The absorbance was recorded at 517 nm after 20 and 60 min at room temperature (Table 3).

[4] = Inhibition of linoleic acid peroxidation (AAPH); details: 0.1 mM
Source text: For the in vitro study of the free radical production, azo compounds generating free radicals through spontaneous thermal decomposition are used. The water soluble 2,2'-azobis(2-amidinopropane) hydrochloride (AAPH) is recommended as appropriate for measuring radical-scavenging activity in vitro. The activity of the peroxyl radicals produced by the action of AAPH greatly resembles to cellular activities such as lipid peroxidation. The phenyl substituted acids presented remarkable activity at 0.1 mM concentration (84%–92%) compared to the non-substituted derivatives (20%–63%).
For initiating the free radical, 2,2'-azobis(2-amidinopropane) dihydrochloride (AAPH) is used. The final solution in the UV cuvette consisted of ten microliters of the 16 mM linoleate sodium dispersion 0.93 mL of 0.05 M phosphate buffer, pH 7.4, thermostatted at 37 °C. 50 μL of 40 mM AAPH solution was added as a free radical initiator at 37 °C under air and 10 μL of the tested compounds. The oxidation of linoleic acid sodium salt results a conjugated diene hydroperoxide. The reaction is monitored at 234 nm (Table 3).

[5] = Hydroxyl radicals scavenging activity (Fe3+/ascorbic acid system, competition with DMSO); details: 0.1 mM; no = no action under the used experimental conditions
Experimental: Thus we evaluated our acids for their competition with DMSO for ˙OH radicals was measured, hydroxyl radicals were produced by the Fe^3+/ascorbic acid system and expressed as percent inhibition of formaldehyde formation at 0.1 mM concentration (Table 3).
The hydroxyl radicals were produced by the Fe ^3+/ascorbic acid system. EDTA (0.1 mM), Fe ^3+ (167 μM), DMSO (33 mM) in phosphate buffer (50 mM, pH 7.4), the tested compounds (0.1 mM) and ascorbic acid (10 mM) were mixed in test tubes. The solutions were incubated at 37 °C for 30 min. The reaction was stopped by CCl3COOH (17% w/v) (Table 4) and the % scavenging activity of the tested compounds for hydroxyl radicals was given.

Question: With O=C1O[C@H]([C@@H](O)CO)C(O)=C1O [Ascorbic Acid, reference compound] as the compound, how does the “ABTS+· (%) (±SD)” value [1] read?
Answer: The value was 96 ± 0.9%.

Question: Which “O2−· (%) (±SD)” value [2] does the source give for O=C(O)/C=C/c1ccc(O)c(O)c1 [Caffeic acid, caffeic acid, reference compound] here?
Answer: The value was 46 ± 0.5%.

Question: For CC(Cc1ccc(O)c(O)c1)C(C)Cc1ccc(O)c(O)c1 (stereo not drawn) [NDGA, nordihydroguaretic acid, reference compound], which “RA % (±SD), DPPH” value ([3]; 0.05 mM, 20 min) is on record?
Answer: The value was 85 ± 1.6%.

Question: What about the “RA % (±SD), DPPH” value ([3]; 0.05 mM, 60 min) of the same compound?
Answer: The value was 83 ± 1.1%.

Question: And the “RA % (±SD), DPPH” value ([3]; 0.1 mM, 20 min)?
Answer: The value was 81 ± 0.8%.

Question: What about the “RA % (±SD), DPPH” value ([3]; 0.1 mM, 60 min) of the same compound?
Answer: The value was 83 ± 0.7%.

Question: Which results are given for Cc1c(C)c2c(c(C)c1O)CCC(C)(C(=O)O)O2 (stereo not drawn) [Trolox, reference compound]?
Answer: AAPH (%) (±SD), inhibition of linoleic acid peroxidation [4]: 63 ± 1.3%; HO (%) (±SD) [5]: 73 ± 1.0%; ABTS+· (%) (±SD) [1]: 88 ± 1.7%
